Experimental data taken from patent US8044204B2, “8-methoxy-9H-isothiazolo[5,4-b]quinoline-3,4-diones and related compounds as anti-infective agents” (Achillion Pharmaceuticals, Inc., priority 2005, dated 2011).
Structures can show the parent of a compound that is named as a salt.

Key:
Format in all cases: cell-based
[1] = system: MRSA strain ATCC 700699; experiment: Minimum Inhibitory Concentration (MIC) assay, Methicillin Resistant S. Aureus; details: Staphylococcus aureus; broth microdilution; read-out: MIC against Methicillin Resistant S. Aureus
Description: It has been unexpectedly discovered that substitution of compounds of Formula I and Formula II with a methoxy substituent at the R8 position increases the anti-microbial activity of the compound against Methicillin resistant Staphylococcus Aureus bacteria while at the same time decreasing the cellular toxicity of the compound. The simultaneous increase in compound activity and decrease in compound toxicity provides a greater therapeutic range for compounds of Formula I and Formula II in which R8 is methoxy; i.e. the range of doses of such compounds that will produce beneficial effects without harmful side effects is increased. […] Therapeutic range is determined using a standard assay of cytotoxicity such as the Alamar blue assay provided in Example 10.
(§1) The antimicrobial activity of the compounds of the invention may be evaluated by a number of methods, including the following visual minimum inhibitory concentration (MIC) assay. This assay determines the minimum concentration of compound required to inhibit growth of a bacterial strain.
(§2) Minimum Inhibitory Concentration (MIC) Assay
(§3) Whole-cell antibacterial activity is determined by broth microdilution using conditions recommended by the NCCLS (see National Committee for Clinical Laboratory Standards. 2001. Performance standards for antimicrobial susceptibility testing: 11th informational supplement. Vol. 21, no. 1, M100-S11. National Committee for Clinical Laboratory Standards, Wayne, Pa.). Test compounds are dissolved in DMSO and diluted 1:50 in Mueller-Hinton II broth (Becton-Dickinson) to produce a 256 μg/ml stock solution. In a 96-well microtiter plate, the compound solution is serially two-fold diluted in Mueller-Hinton II broth. After the compounds are diluted, a 50 μl aliquot of the test organism (˜1×10^6 cfu/mL) is added to each well of the microtiter plate. The final test concentrations ranges from 0.125-128 μg/mL. Inoculated plates are incubated in ambient air at 37° C. for 18 to 24 hours. The organisms selected for testing included laboratory strains S. aureus ATCC 29213 and E. coli ATCC 25922 (strains purchased from American Type Culture Collection, Manassas, Va.), S. aureus FQR700699, and Paeruginosa 27853. The minimum inhibitory concentration (MIC) is determined as the lowest concentration of compound that inhibited visible growth of the test organism.

[2] = system: S. aureus ATCC 29213; experiment: Minimum Inhibitory Concentration (MIC) assay, S. aureus; details: Staphylococcus aureus, ATCC29213; broth microdilution; read-out: MIC against S. Aureus
Protocol: as §1, §2, §3

[3] = system: E. coli ATCC 25922; experiment: Minimum Inhibitory Concentration (MIC) assay, E. coli; details: Escherichia coli, ATCC25922; broth microdilution; read-out: MIC against E. coli
Protocol: as §1, §2, §3

MIC [1]	MIC [2]	MIC [3]	Compound
≤ 1 µg/mL	≤ 1 µg/mL	≤ 1 µg/mL	COc1c(N(C)C)c(F)cc2c(=O)c3c(=O)[nH]sc3n(C3CC3)c12 [Compound 42, 9-cyclopropyl-7-(dimethyl-amino)-6-fluoro-8-methoxyiso-thiazolo[5,4-b]quinoline-3,4(2H,9H)-dione]
≤ 1 µg/mL	≤ 1 µg/mL	≤ 1 µg/mL	COc1c(N2CCC(C(C)(C)N)C2)c(F)cc2c(=O)c3c(=O)[nH]sc3n(C3CC3)c12 (stereo not drawn) [Compound 57, 7-(3-(2-aminopropan-2-yl)pyrrolidin-1-yl)-9-cyclopropyl-6-fluoro-8-methoxyiso-thiazolo[5,4-b]quinoline-3,4(2H,9H)-dione]
≤ 1 µg/mL	≤ 1 µg/mL	≤ 1 µg/mL	[2H]C1([2H])CC(C(C)(C)N)C([2H])([2H])N1c1c(F)cc2c(=O)c3c(=O)[nH]sc3n(C3CC3)c2c1OC (stereo not drawn) [Compound 71, 7-(3-(2-amino-propan-2-yl)-2,2,5,5-tetradeuterated-pyrrolidin-1-yl)-9-cyclopropyl-6-fluoro-8-methoxyiso-thiazolo[5,4-b]quinoline-3,4(2H,9H)-dione]
≤ 1 µg/mL	≤ 1 µg/mL	≤ 1 µg/mL	COc1c(N2CC[C@@H](C(C)N)C2)c(F)cc2c(=O)c3c(=O)[nH]sc3n(C3CC3)c12 (stereo partly drawn) [Compound 73, (R)-7-(3-(1-aminoethyl)pyrrolidin-1-yl)-9-cyclopropyl-6-fluoro-8-methoxyiso-thiazolo[5,4-b]quinoline-3,4(2H,9H)-dione]
≤ 1 µg/mL	≤ 1 µg/mL	≤ 1 µg/mL	CNC(C)[C@@H]1CCN(c2c(F)cc3c(=O)c4c(=O)[nH]sc4n(C4CC4)c3c2OC)C1 (stereo partly drawn) [Compound 74, (R)-9-cyclopropyl-6-fluoro-8-methoxy-7-(3-(1-(methyl-amino)ethyl)-pyrrolidin-1-yl)isothia-zolo[5,4-b]quinoline-3,4(2H,9H)-dione]
≤ 1 µg/mL	≤ 1 µg/mL	≤ 1 µg/mL	CC(C)(N)C1CCN(c2c(F)cc3c(=O)c4c(=O)[nH]sc4n(C4CC4)c3c2F)C1 (stereo not drawn) [Compound 75, 7-(3-(2-amino-propan-2-yl)pyrrolidin-1-yl)-9-cyclo-propyl-6,8-difluoroiso-thiazolo[5,4-b]quinoline-3,4(2H,9H)-dione]
≤ 1 µg/mL	≤ 1 µg/mL	≤ 1 µg/mL	CCNC(C)[C@@H]1CCN(c2c(F)cc3c(=O)c4c(=O)[nH]sc4n(C4CC4)c3c2OC)C1 (stereo partly drawn) [Compound 77, (R)-9-cyclo-propyl-7-(3-(1-(ethyl-amino)ethyl)pyrrolidin-1-yl)-6-fluoro-8-methoxyiso-thiazolo[5,4-b]quinoline-3,4(2H,9H)-dione]
≤ 1 µg/mL	≤ 1 µg/mL	≤ 1 µg/mL	CNC[C@@H]1CCN(c2c(F)cc3c(=O)c4c(=O)[nH]sc4n(C4CC4)c3c2OC)C1 [Compound 87, (S)-9-cyclo-propyl-6-fluoro-8-methoxy-7-(3-((methylamino)-methyl)pyrrolidin-1-yl)isothia-zolo[5,4-b]quinoline-3,4(2H,9H)-dione]
≤ 1 µg/mL	≤ 1 µg/mL	≤ 1 µg/mL	COc1c(N2CC[C@@H](CNC3CC3)C2)c(F)cc2c(=O)c3c(=O)[nH]sc3n(C3CC3)c12 [Compound 88, (S)-9-cyclo-propyl-7-(3-((cyclopropyl-amino)-methyl)-pyrrolidin-1-yl)-6-fluoro-8-methoxyiso-thiazolo[5,4-b]quinoline-3,4(2H,9H)-dione]
≤ 1 µg/mL	≤ 1 µg/mL	≤ 1 µg/mL	CCNC(C)(C)[C@@H]1CCN(c2c(F)cc3c(=O)c4c(=O)[nH]sc4n(C4CC4)c3c2OC)C1 [Compound 89, (R)-9-cyclo-propyl-7-(3-(2-(ethyl-amino)propan-2-yl)pyrrolidin-1-yl)-6-fluoro-8-methoxyiso-thiazolo[5,4-b]quinoline-3,4(2H,9H)-dione]
≤ 1 µg/mL	≤ 1 µg/mL	≤ 1 µg/mL	COc1c(N2CC[C@@H](C(C)NC3CC3)C2)c(F)cc2c(=O)c3c(=O)[nH]sc3n(C3CC3)c12 (stereo partly drawn) [Compound 93, (R)-9-cyclo-propyl-7-(3-(1-(cyclo-propylamino)ethyl)-pyrrolidin-1-yl)-6-fluoro-8-methoxyiso-thiazolo[5,4-b]quinoline-3,4(2H,9H)-dione]
≤ 1 µg/mL	≤ 1 µg/mL	≤ 1 µg/mL	COc1c(N2CC[C@H](C(C)NC3CC3)C2)c(F)cc2c(=O)c3c(=O)[nH]sc3n(C3CC3)c12 (stereo partly drawn) [Compound 94, (S)-9-cyclo-propyl-7-(3-(1-(cyclo-propylamino)ethyl)-pyrrolidin-1-yl)-6-fluoro-8-methoxyiso-thiazolo[5,4-b]quinoline-3,4(2H,9H)-dione]
≤ 1 µg/mL	≤ 1 µg/mL	≤ 1 µg/mL	COc1c(N2CC(C)C(CN)C2)c(F)cc2c(=O)c3c(=O)[nH]sc3n(C3CC3)c12 (stereo not drawn) [Compound 95, 7-(3-(amino-methyl)-4-methyl-pyrrolidin-1-yl)-9-cyclopropyl-6-fluoro-8-methoxyiso-thiazolo[5,4-b]quinoline-3,4(2H,9H)-dione]
≤ 1 µg/mL	≤ 1 µg/mL	≤ 1 µg/mL	COc1c(N2CC(C)C(C#N)C2)c(F)cc2c(=O)c3c(=O)[nH]sc3n(C3CC3)c12 (stereo not drawn) [Compound 100, 1-(9-cyclo-propyl-6-fluoro-8-methoxy-3,4-dioxo-2,3,4,9-tetrahydroisothia-zolo[5,4-b]quinolin-7-yl)-4-methyl-pyrrolidine-3-carbonitrile]
≤ 1 µg/mL	≤ 1 µg/mL	≤ 1 µg/mL	COc1c(N2CC[C@@H](C(C)N)C2)ccc2c(=O)c3c(=O)[nH]sc3n(C3CC3)c12 (stereo partly drawn) [Compound 102, (R)-7-(3-(1-aminoethyl)-pyrrolidin-1-yl)-9-cyclopropyl-8-methoxyiso-thiazolo[5,4-b]quinoline-3,4(2H,9H)-dione]
≤ 1 µg/mL	≤ 1 µg/mL	≤ 1 µg/mL	CNC(C)[C@@H]1CCN(c2ccc3c(=O)c4c(=O)[nH]sc4n(C4CC4)c3c2OC)C1 (stereo partly drawn) [Compound 103, (R)-9-cyclo-propyl-8-methoxy-7-(3-(1-(methylamino)-ethyl)pyrrolidin-1-yl)isothia-zolo[5,4-b]quinoline-3,4(2H,9H)-dione]

Compound	MIC [1]	MIC [2]	MIC [3]
COc1c(N2CC[C@@H](C(C)(C)N)C2)ccc2c(=O)c3c(=O)[nH]sc3n(C3CC3)c12 [Compound 54, (R)-7-(3-(2-aminopropan-2-yl)pyrrolidin-1-yl)-9-cyclopropyl-8-methoxyiso-thiazolo[5,4-b]quinoline-3,4(2H,9H)-dione, hydrochloride]	≤ 1 µg/mL	≤ 1 µg/mL	≤ 1 µg/mL
COc1c(N2CC[C@@H](C3(N)CC3)C2)c(F)cc2c(=O)c3c(=O)[nH]sc3n(C3CC3)c12 [Compound 55, (R)-7-(3-(1-amino-cyclopropyl)pyrrolidin-1-yl)-9-cyclopropyl-6-fluoro-8-methoxyiso-thiazolo[5,4-b]quinoline-3,4(2H,9H)-dione, hydrochloride]	≤ 1 µg/mL	≤ 1 µg/mL	≤ 1 µg/mL
COc1c(N2CC[C@@H](C3(N)CC3)C2)ccc2c(=O)c3c(=O)[nH]sc3n(C3CC3)c12 [Compound 56, (R)-7-(3-(1-aminocyclo-propyl)pyrrolidin-1-yl)-9-cyclopropyl-8-methoxy-isothia-zolo[5,4-b]quinoline-3,4(2H,9H)-dione, hydrochloride]	≤ 1 µg/mL	≤ 1 µg/mL	≤ 1 µg/mL
